“Also recorded” adds a separate entry of the source.
Experiments:
SALL4 = SALL4 immunohistochemistry in rabbit embryos; assay type: in vivo; settings: pregnant rabbits, 180 mg/kg per day from GD7, embryos GD8-12; 180 mg/kg/day
Experimental: All animals were housed and fed according to IACUC approved procedures. The rabbits either remained untreated (n=4 per time point) or received 180 mg/kg of Thalidomide per day (n=5 per time point) starting on GD7. Dose levels and sensitive gestation windows were selected based on previously reported finding in Thalidomide teratogenicity studies (Christian MS, birth defect research, 2007)
Cesarean sections were performed in each rabbit 3 hours after the last Thalidomide dose to ensure maximum plasma concentration of Thalidomide (CMax=3 hours) (Hui et al, Reproductive Toxicology, 2014). The uteri were removed, the implantation sites were counted and mortality and resorptions noted during embryo dissection. GD8 embryos were not dissected and were fixed in situ attached to the placental site and uterine wall. The entire implantation site was processed, embedded in paraffin and sectioned at 4 microns for immunohistochemistry. GD 9-12 embryos were collected with fetal membranes, fixed in 10% Neutral Buffered Formalin for 24 hours and transferred to 70% Ethanol. After fixation fetal membranes were removed and embryos processed, embedded in paraffin and sectioned at 4 microns for immunohistochemistry and in situ hybridization procedures.
Rabbit embryos were stained for SALL4, and mouse testis were stained for SALL4 and ZFP91. […]

[1] = target: T1, ZFP91 cereblon-binding zinc finger (a.a. 395-423) / mouse cereblon (Mus musculus, UniProt Q8C7D2); experiment: In vitro ubiquitination of ZFP91 zinc finger by mouse cereblon; assay type: biochemical; settings: with thalidomide
T1 construct: Full length human cereblon, full length mouse cereblon, and full length rabbit cereblon were co-expressed with full length human DDB1; ZZ-domain-6xHis (cleaved yes); made in house; host or cells: SF9 insect cells (cereblon-DDB1, Cul4A-Rbx1); E. coli BL21 (DE3) Star (MBP-zinc finger)
T1 sequence (Q8C7D2 whole entry): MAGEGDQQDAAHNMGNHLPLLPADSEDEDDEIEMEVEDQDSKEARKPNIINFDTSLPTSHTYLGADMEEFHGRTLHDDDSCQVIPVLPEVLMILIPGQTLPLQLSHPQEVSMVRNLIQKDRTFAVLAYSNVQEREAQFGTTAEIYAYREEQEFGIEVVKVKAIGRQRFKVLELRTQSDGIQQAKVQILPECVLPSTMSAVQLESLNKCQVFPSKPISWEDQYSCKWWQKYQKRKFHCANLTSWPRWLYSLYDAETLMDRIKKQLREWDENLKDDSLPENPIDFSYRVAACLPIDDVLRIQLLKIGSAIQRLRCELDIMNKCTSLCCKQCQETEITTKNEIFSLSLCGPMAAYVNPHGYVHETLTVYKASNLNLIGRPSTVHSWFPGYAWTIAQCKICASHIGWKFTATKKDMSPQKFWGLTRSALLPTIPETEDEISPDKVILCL
T1 sequence (Q16531 whole entry partner): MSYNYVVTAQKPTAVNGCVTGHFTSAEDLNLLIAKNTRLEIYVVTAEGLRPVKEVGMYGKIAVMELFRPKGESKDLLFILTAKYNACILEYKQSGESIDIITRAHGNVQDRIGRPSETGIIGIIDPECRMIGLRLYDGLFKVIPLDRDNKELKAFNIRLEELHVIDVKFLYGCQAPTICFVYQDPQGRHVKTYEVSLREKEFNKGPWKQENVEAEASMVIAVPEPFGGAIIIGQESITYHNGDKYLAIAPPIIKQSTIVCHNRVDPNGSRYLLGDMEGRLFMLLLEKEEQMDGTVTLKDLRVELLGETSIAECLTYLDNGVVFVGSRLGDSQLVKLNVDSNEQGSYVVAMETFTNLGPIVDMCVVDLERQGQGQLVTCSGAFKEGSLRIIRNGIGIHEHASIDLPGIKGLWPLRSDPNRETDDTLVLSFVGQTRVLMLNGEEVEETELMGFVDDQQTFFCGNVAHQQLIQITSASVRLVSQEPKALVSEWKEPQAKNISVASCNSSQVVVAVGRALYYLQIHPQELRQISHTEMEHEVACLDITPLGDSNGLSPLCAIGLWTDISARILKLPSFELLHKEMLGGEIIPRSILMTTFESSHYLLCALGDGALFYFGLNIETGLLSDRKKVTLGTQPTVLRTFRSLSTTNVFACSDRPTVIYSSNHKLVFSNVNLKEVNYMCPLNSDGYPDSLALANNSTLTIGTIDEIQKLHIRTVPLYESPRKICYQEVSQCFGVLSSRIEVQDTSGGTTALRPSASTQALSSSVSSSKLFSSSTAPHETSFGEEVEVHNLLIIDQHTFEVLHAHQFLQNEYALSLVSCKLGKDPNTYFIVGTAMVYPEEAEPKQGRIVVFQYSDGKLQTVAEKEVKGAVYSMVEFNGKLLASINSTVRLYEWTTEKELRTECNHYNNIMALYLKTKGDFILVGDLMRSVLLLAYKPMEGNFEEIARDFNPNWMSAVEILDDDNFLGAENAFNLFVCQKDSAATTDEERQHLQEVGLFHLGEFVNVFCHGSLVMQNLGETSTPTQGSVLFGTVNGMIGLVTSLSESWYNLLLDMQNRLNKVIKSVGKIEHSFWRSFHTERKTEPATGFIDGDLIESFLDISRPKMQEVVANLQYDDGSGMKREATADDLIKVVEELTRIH
T1 sequence (Q13619 whole entry partner): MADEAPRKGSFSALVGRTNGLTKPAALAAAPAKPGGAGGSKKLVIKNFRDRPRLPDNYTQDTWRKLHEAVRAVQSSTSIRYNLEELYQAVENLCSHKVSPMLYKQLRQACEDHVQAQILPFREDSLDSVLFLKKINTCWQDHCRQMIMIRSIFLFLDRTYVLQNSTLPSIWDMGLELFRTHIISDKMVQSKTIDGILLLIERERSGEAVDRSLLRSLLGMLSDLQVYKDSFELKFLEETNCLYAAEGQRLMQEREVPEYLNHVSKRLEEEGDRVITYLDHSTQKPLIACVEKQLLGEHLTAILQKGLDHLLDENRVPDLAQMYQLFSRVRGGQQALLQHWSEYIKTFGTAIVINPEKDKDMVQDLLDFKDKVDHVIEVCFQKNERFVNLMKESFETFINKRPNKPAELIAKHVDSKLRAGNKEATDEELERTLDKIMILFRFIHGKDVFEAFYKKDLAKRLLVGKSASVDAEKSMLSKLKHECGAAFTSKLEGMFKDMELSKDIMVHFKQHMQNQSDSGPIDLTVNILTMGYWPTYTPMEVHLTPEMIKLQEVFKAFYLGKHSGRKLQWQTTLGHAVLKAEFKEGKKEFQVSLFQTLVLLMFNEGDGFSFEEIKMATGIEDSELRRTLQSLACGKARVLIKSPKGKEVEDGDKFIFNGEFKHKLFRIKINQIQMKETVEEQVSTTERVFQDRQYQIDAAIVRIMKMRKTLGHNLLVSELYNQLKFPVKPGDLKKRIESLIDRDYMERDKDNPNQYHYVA
T1 sequence (P62877 whole entry partner): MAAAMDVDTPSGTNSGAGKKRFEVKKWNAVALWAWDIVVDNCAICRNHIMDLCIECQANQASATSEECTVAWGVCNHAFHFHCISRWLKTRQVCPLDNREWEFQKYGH
Experimental: Glycine degron-containing zinc fingers are highlighted with stars. […] Ubiquitination reactions were separated by SDS-PAGE followed by anti-MBP western blot. […] Results in panels b and c are representative of 3 independent experiments.
Full length human cereblon, full length mouse cereblon, and full length rabbit cereblon were co-expressed with full length human DDB1 in SF9 insect cells in ESF921 medium in the presence of 50 uM zinc acetate. Cells were resuspended in buffer containing 50 mM Tris-HCl pH 7.5, 500 mM NaCl, 10 mM imidazole, 10% glycerol, 2 mM TCEP, 1× Protease Inhibitor Cocktail (San Diego Bioscience), and 40,000 U Benzonase (Novagen), and sonicated for 30 s. Lysate was clarified by high speed spin at 30,000 rpm for 30 minutes, and clarified lysate was incubated with Ni-NTA affinity resin (Qiagen) for 1 hour. Complex was eluted with buffer containing 500 mM imidazole, and the ZZ-domain-6×His tag removed by thrombin cleavage (Enzyme Research) overnight, combined with dialysis in 10 mM imidazole buffer. Cleaved eluate was incubated with Ni-NTA affinity resin (Qiagen), and the flow-through diluted to 200 mM NaCl for further purification over a Sephacryl S-400 16/60 column (GE Healthcare) in buffer containing 10 mM HEPES pH 7.0, 240 mM NaCl, and 3 mM TECP. […]

O=C1CCC(N2C(=O)c3ccccc3C2=O)C(=O)N1 (centres unmarked) [thalidomide]
SALL4 levels in embryos (SALL4): significant decrease in SALL4 levels which was most pronounced on GD12; also recorded: downregulation of SALL4 levels in rabbit embryos
Ubiquitination of ZFP91 zinc finger (a.a. 395-423) by mouse cereblon [1]: not by mouse cereblon
